Ends that are not written are not given here.

For one series, the system named is S. aureus ATCC® 29213. Type of series: cell-based, Staphylococcus aureus. The note with it: CLSI broth microdilution, Mueller-Hinton broth, peptide 30 µM, ~6 × 10^6 CFU/mL, 24 h 37 °C, OD600; triplicate, three independent assays; NA = no activity. The protocol:
(§1) Activity screening was conducted using the broth microdilution method at a fixed peptide concentration of 30 µM against E. coli ATCC® 8739 and 25922, as well as S. aureus ATCC® 6538 and 29213. The bacterial density used for screening was approximately 6 × 10^6 CFU/mL [30]. Peptide activity measurements were conducted in terms of the growth inhibition percentage. No dose-response curves were generated during the screening phase as a resource optimization strategy in the initial activity evaluation. […] For S. aureus ATCC® 6538 and S. aureus ATCC® 29213, growth inhibition ranged from 0% to 140% and 0% to 98%, respectively (Table 1).
(§2) The evaluation of the antimicrobial activity of the peptides was conducted using the CLSI’s broth microdilution method for bacterial susceptibility testing. For the screening phase, peptides were evaluated at a single 30 μM concentration, in triplicate and in three independent assays, against the E. coli ATCC® 8739, E. coli ATCC® 25922, S. aureus ATCC® 6538, or S. aureus ATCC® 29213 reference USP and CLSI strains. For the determination of MIC, MBC, or IC50, peptides or antibiotics were evaluated in concentrations between 1.56–200 µM. These evaluations were conducted in triplicate and in three independent assays, against the E. coli ATCC® 25922, S. aureus ATCC® 29213, E. faecalis ATCC® 49532, P. aeruginosa ATCC® 9027, and K. pneumoniae ATCC® BAA-1705, or the clinically isolated MDR strain. In detail, 1 mL of a glycerol stock solution of the ATCC® or clinically isolated bacterial strain was added to 9 mL of Mueller-Hinton Broth and incubated for 18 h, 180 rpm and 37 °C (Incubator 1000, Heidolph Instruments, Schwabach, Germany). After the incubation, 1 mL of the previous solution was transferred to a new recipient containing 9 mL of fresh Mueller-Hinton broth and incubated for 4 h, 180 rpm and 37 °C (Incubator 1000, Heidolph Instruments, Schwabach, Germany). During the second incubation, the peptides or the antibiotics were dissolved in PBS pH 7.20 in concentrations between 19.53–2500 µM (MC5 Micro Balance, Sartorius AG, Göttingen, Germany). An amount of 10 µL of either peptide or antibiotic was dispensed in triplicate in 96-well flat bottom culture plates, along with 10 µL of PBS (Negative activity control), BTM-P1 (Positive activity control), or 10 µL of Mueller-Hinton broth (Blank); then, 110 µL of Mueller-Hinton broth was poured in all wells. Following this, the bacteria were suspended in Mueller-Hinton broth up to a concentration of approximately 1.50 × 10^8 CFU/mL, as measured by optical density at 600 nm between 0.06 to 0.11 (0.5 McFarland standard), in a Multiskan SkyHigh spectrophotometer (ThermoFisher Scientific, Waltham, MA, USA). Amounts of 5 µL of the 1.50 × 10^8 CFU/mL suspension were added to each well (except for the blank) for a final well concentration of approximately 6 × 10^6 CFU/mL. The plate was incubated for 24 h at 37 °C (BE 500, Memmert GmbH, Büchenbach, Germany) and optical density was measured at 600 nm in a Multiskan SkyHigh spectrophotometer (ThermoFisher Scientific, Waltham, MI, USA). Following the measurement of optical density, plates were visually inspected to determine the MIC. Subsequently, 100 µL of the concentration associated to the MIC and 100 µL of the next higher concentration were added to Petri dishes containing Mueller-Hinton Agar. The dishes were then incubated for 24 h at 37 °C (BE 500, Memmert GmbH, Büchenbach, Germany). After incubation, the Petri dishes were visually inspected, and the MBC was determined in the absence of growth. IC50 values were interpolated from regressions with correlation values above 0.70. Growth inhibition percentages were calculated as follows: Growth inhibition %=1−AbsPEPTIDE or ANTIBIOTIC−Median AbsBLANK/Median AbsPBS−Median AbsBLANK×100
For orientation: In broth dilution the organism is exposed to a series of concentrations in liquid medium.

Another series relates to S. aureus ATCC® 6538. Type of series: cell-based, Staphylococcus aureus. The note with it: CLSI broth microdilution, Mueller-Hinton broth, peptide 30 µM, ~6 × 10^6 CFU/mL, 24 h 37 °C, OD600; triplicate, three independent assays; NA = no activity. The protocol: as §1, §2
Series [1] concerns human red blood cells (hRBCs). Briefly: Hemolytic activity. Format: cell-based. The protocol: The cytotoxicity of PvAMP66 was assessed in vitro against human red blood cells (hRBCs) and human peripheral blood mononuclear cells (hPBMCs) using concentrations of 1.56–200 µM. At the highest concentration, PvAMP66 induced 60% hemolysis in human erythrocytes (Figure 3a), and a decrease in viability of approximately 40% in the hPBMCs (Figure 3b). […] Ratios between CC50 or HC50, and the IC50 values registered for the bacterial strains, indicate that PvAMP66 has higher selectivity for interacting with prokaryotic membranes (Table 4).
Human red blood cells (hRBCs) were obtained from the Blood Bank of the School of Microbiology of the University of Antioquia in Medellín, Colombia. Ten mL of hRBCs were diluted in 10 mL of PSB pH 7.20, mixed by inversion, and centrifuged five times at 4 °C, 1000× g for 10 min (Universal 32 R, Hettich Group, Kirchlengern, Westphalia, Germany). […] Then, the supernatant was transferred to 96-well flat bottom culture plates without transferring of the RBC pellet, and hemoglobin release was measured at 420 nm (Multiskan SkyHigh, ThermoFisher Scientific, Waltham, MA, USA). All peptides were evaluated in three independent assays. The hemolysis percentage was calculated as follows: Hemolysis %=AbsPEPTIDE−Median AbsPBS/Median AbsTRITON−Median AbsPBS×100

Take WKKIKKFF-NH2 [PvAMP66]: in the series with S. aureus ATCC® 29213, the “S. aureus ATCC® 29213 (Inhibition %)” value stood at 98.25 ± 0.39 %. Further, the “S. aureus ATCC® 6538 (Inhibition %)” value in the series with S. aureus ATCC® 6538 is 139.72 ± 1.90 %. Further, the “HC50 (Hemolytic Concentration 50)” value in series [1] (10% v/v hRBC in PBS pH 7.20, 1 h 37 °C, hemoglobin at 420 nm, 1.56–200 µM, logistic regression, 95% CI in parentheses, three independent assays) is 132.96 (118.82–151.21) µM. In series [1] (human erythrocytes, highest concentration (200 µM), 1 h 37 °C), this substance showed a hemolysis of 60%.

(Values after publication PMC10812672, “Short Antimicrobial Peptide Derived from the Venom Gland Transcriptome of Pamphobeteus verdolaga Increases Gentamicin Susceptibility of Multidrug-Resistant Klebsiella pneumoniae” (Antibiotics, 2023).)
